Measured values as given in patent publication US20220402862A1 (Intellia Therapeutics, Inc., priority 2019, published 2022).
Several values for one entry are separate records, joined by “and”; a condition that tells them apart may be missing. Equal entries are not always repeated.

Assays:
[1] = RNA encapsulation efficiency of LNPs (Ribogreen fluorescence assay); type: physicochemical; details: LNP; for Encapsulation (%): sg:mRNA 1:1, N/P about 6, amine lipid/DSPC/cholesterol/PEG-2k-DMG 50/9/38/3, Table 2, Experiments 2-20
How it was run: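 LNPs were diluted in 1× TE with 0.2% Triton X-100 (total RNA) or without it (free RNA), stained with RiboGreen for ~10 min at room temperature in the dark, and read at Ex 488/Em 525 nm against standard curves of the starting RNA. Encapsulation efficiency = (Total − Free)/Total.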

Transthyretin (TTR) = test: Serum TTR ELISA in mice after LNP dosing; type: in vivo, CD-1 female mice
How it was run: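 Female CD-1 mice, 6–10 weeks, given LNPs by tail-vein injection (~10 mL/kg), 0.1 mg/kg unless noted; serum taken at day 6 or 7 by cardiac puncture. Total mouse TTR by ELISA on sera diluted 10,000-fold (0.1 mg/kg) or 10,000- and 2,500-fold (0.3 mg/kg).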

[2] = Dynamic light scattering of LNPs: Z-average diameter, number average diameter, PDI; type: physicochemical; details: LNP
How it was run: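 LNP samples were diluted in PBS and measured by DLS to give intensity-based Z-average diameter, number average diameter and polydispersity index. PDI describes size spread around the mean, with zero meaning a uniform population.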

mouse TTR gene = test: In vivo editing in mouse liver, sgRNA targeting TTR (G282 or G502), % indel by NGS; set-up: species or system CD-1 female mice
Method: CD-1 female mice ranging from 6-10 weeks of age were used in each study. Animals were weighed and grouped according to body weight for preparing dosing solutions based on group average weight. LNPs were dosed via the lateral tail vein in a volume of 0.2 mL per animal (approximately 10 mL per kilogram body weight). The animals were periodically observed for adverse effects for at least 24 hours post dose. For studies measuring in vivo editing in liver, CD-1 female mice were dosed at 0.1 mg/kg unless otherwise noted. Animals were euthanized at 6 or 7 days by ex sanguination via cardiac puncture under isoflurane anesthesia. Liver tissue was collected from each animal for DNA extraction and analysis. Blood was collected into serum separator tubes or into tubes containing buffered sodium citrate for plasma as described herein. Cohorts of mice were measured for editing by Next-Generation Sequencing (NGS).
In brief, to quantitatively determine the efficiency of editing at the target location in the genome, genomic DNA was isolated and deep sequencing was utilized to identify the presence of insertions and deletions introduced by gene editing.
PCR primers were designed around the target site (e.g., within B2M), and the genomic area of interest was amplified. Additional PCR was performed according to the manufacturer's protocols (Illumina) to add the necessary chemistry for sequencing. The amplicons were sequenced on an Illumina MiSeq instrument. The reads were aligned to the mouse or rat reference genome (e.g., GRCm38) after eliminating those having low quality scores. The resulting files containing the reads were mapped to the reference genome (BAM files), where reads that overlapped the target region of interest were selected and the number of wild type reads versus the number of reads which contain an insertion, substitution, or deletion was calculated.
The editing percentage (e.g., the “indel efficiency” or “percent indels”) was defined as the total number of sequence reads with insertions or deletions over the total number of sequence reads, including wild type.
We assessed in vivo editing efficiency for materials delivered with formulations including various amine lipid compounds. Editing was measured using either G282 (SEQ ID No: 1) which targets the mouse TTR gene or G650 (SEQ ID No. 2) which targets the mouse B2M gene. Lipids described above were assessed for efficacy through in vivo editing experiments. LNPs were formulated at a 1:1 or 1:1.3 w/w ratio of sgRNA to Cas9 mRNA, and at an N/P ratio of about 6. Molar concentrations of lipids in the lipid component of the LNPs are used at mol % amine lipid/DSPC/cholesterol/PEG-2k-DMG of 50/9/38/3. The final LNPs were characterized to determine the encapsulation efficiency, polydispersity index, and average particle size according to the analytical methods provided above. Analysis of average particle size, polydispersity (PDI), total RNA content and encapsulation efficiency of RNA are shown in Table 2.
To assess whether the editing was dose responsive, experiments were performed in vivo at various LNP dose levels. Cas9 mRNA of Example 120 was formulated as LNPs with an sgRNA targeting TTR (G282, SEQ ID NO: 1; or G502, SEQ ID NO: 4).
We assessed in vivo delivery by measuring editing efficiency for materials delivered with formulations that included various amine lipid compounds. Cas9 mRNA (SEQ ID NO: 6) was formulated as LNPs with an sgRNA targetting the TTR mouse gene (SEQ ID NO: 4). LNPs were formulated at a 1:2 w/w ratio of sgRNA to Cas9 mRNA, and at an N/P ratio of about 6. Molar concentrations of lipids in the lipid component of the LNPs are used at mol % amine lipid/DSPC/cholesterol/PEG-2k-DMG of 50/9/38/3. The final LNPs compositions were characterized and analyzed as described in Example 120. Analysis of average particle size, polydispersity (PDI), total RNA content and encapsulation efficiency of RNA are shown in Table 6.

[3] = pKa measurement of unformulated amine lipid (fluorescence, method of Jayaraman et al.); type: physicochemical; details: 100 μM in 0.1 M phosphate buffer, pH 2.0-12.0
Method: The pKa of each amine lipid was determined according to the method in Jayaraman, et al. (Angewandte Chemie, 2012) with the following adaptations. […] Lipid was diluted to 100 μM in 0.1 M phosphate buffer (Boston Bioproducts) where the pH ranged from 2.0-12.0. Fluorescence intensity was measured using excitation and emission wavelengths of 321 nm and 448 nm.

[4] = sg:mRNA 1:2, N/P 6.0, 50/9/38/3, Table 4, Experiment 105
[5] = mouse serum TTR relative to TSS control, guide G282 experiments
[6] = mouse serum, guide G282 experiments, ELISA
[7] = sg:mRNA 1:1, N/P about 6, 50/9/38/3, Table 2, Experiments 2-20
[8] = sg:mRNA 1:1, N/P 6.0, 50/9/38/3, Table 4, Experiments 101-104

CCCCC/C=C\C/C=C\CCCCCCCC(=O)OCC(COC(=O)CCC(OCCCCCCCC)OCCCCCCCC)COC(=O)OCCC1CCCN1C (stereo not drawn) [Compound 24, 3-((4,4-bis(octyloxy)butanoyl)oxy)-2-((((2-(1-methylpyrrolidin-2-yl)ethoxy)carbonyl)oxy)methyl)propyl (9Z,12Z)-octadeca-9,12-dienoate]
Encapsulation (%) [1]: 98% and 97% | % E [1, 4]: 99% | Serum TTR % TSS (Transthyretin (TTR); [5]): 46% | Serum TTR (Transthyretin (TTR); [6]): 397 µg/mL | Serum TTR (Transthyretin (TTR); mouse, LNP i.v. 0.03 mg/kg, guide G502, Experiment 105): 772 µg/mL | Serum TTR % TSS (Transthyretin (TTR); mouse, LNP i.v. 0.03 mg/kg, guide G502, Experiment 105, relative to TSS control): 70% | Serum TTR (Transthyretin (TTR); mouse, LNP i.v. 0.1 mg/kg, guide G502, Experiment 105): 420 µg/mL | Serum TTR % TSS (Transthyretin (TTR); mouse, LNP i.v. 0.1 mg/kg, guide G502, Experiment 105, relative to TSS control): 38% | Number mean (nm) [2, 7]: 61.34 nm and 66.88 nm and 63.16 nm | PDI [2, 7]: 0.027 and 0.033 and 0.025 | Z-avg (nm) [2, 7]: 76.82 nm and 83.92 nm and 77.24 nm | Number mean (nm) [2, 4]: 72.95 nm | PDI [2, 4]: 0.029 | Z-avg (nm) [2, 4]: 88.39 nm | Editing Mean % Indel (mouse TTR gene; LNP i.v. 0.03 mg/kg, guide G502, Experiment 105): 11.34% | Editing Mean % Indel (mouse TTR gene; LNP i.v. 0.1 mg/kg, guide G502, Experiment 105): 40.54%

CCCCC/C=C\C/C=C\CCCCCCCC(=O)OCC(COC(=O)CCCN(CC)CC)COC(=O)CCC(OCCCCCCCC)OCCCCCCCC (stereo not drawn) [Compound 29, 3-((4,4-bis(octyloxy)butanoyl)oxy)-2-(((4-(diethylamino)butanoyl)oxy)methyl)propyl (9Z,12Z)-octadeca-9,12-dienoate]
pKa [3]: 6.84 | % E [1, 8]: 99% | Encapsulation (%) [1]: 98% | Serum TTR (Transthyretin (TTR); mouse, LNP i.v. 0.1 mg/kg, guide G282, Experiments 101-103): 663 µg/mL | Serum TTR % TSS (Transthyretin (TTR); mouse, LNP i.v. 0.1 mg/kg, guide G282, Experiments 101-103, relative to TSS control): 48% | Serum TTR (Transthyretin (TTR); mouse, LNP i.v. 0.3 mg/kg, guide G282, Experiments 101-103): 205 µg/mL | Serum TTR % TSS (Transthyretin (TTR); mouse, LNP i.v. 0.3 mg/kg, guide G282, Experiments 101-103, relative to TSS control): 15% | Number mean (nm) [2, 8]: 70 nm | PDI [2, 8]: 0.003 | Z-avg (nm) [2, 8]: 84 nm | Number mean (nm) [2, 7]: 66.92 nm and 64.63 nm | Z-avg (nm) [2, 7]: 82.41 nm and 78.63 nm | Editing Mean % Indel (mouse TTR gene; LNP i.v. 0.1 mg/kg, guide G282, Experiments 101-103): 31.4% | Editing Mean % Indel (mouse TTR gene; LNP i.v. 0.3 mg/kg, guide G282, Experiments 101-103): 54.8%

CCCCCCCCCCOC(=O)CCCCCCCCCC(=O)OCC(COC(=O)CCC(OCCCCCCCC)OCCCCCCCC)COC(=O)OCCCN(CC)CC (stereo not drawn) [Compound 90, 1-(3-((4,4-bis(octyloxy)butanoyl)oxy)-2-((((3-(diethylamino)propoxy)carbonyl)oxy)methyl)propyl) 11-decyl undecanedioate]
pKa [3]: 6.14 | Encapsulation (%) [1]: 99% | Serum TTR % TSS (Transthyretin (TTR); [5]): 67% | Serum TTR (Transthyretin (TTR); [6]): 504 µg/mL | Number mean (nm) [2, 7]: 81.15 nm | PDI [2, 7]: 0.017 | Z-avg (nm) [2, 7]: 99.62 nm

CCCCCCCCCCOC(=O)CCCCCCCCCCCC(=O)OCC(COC(=O)CCC(OCCCCCCCC)OCCCCCCCC)COC(=O)OCCCN(CC)CC (stereo not drawn) [Compound 91, 1-(3-((4,4-bis(octyloxy)butanoyl)oxy)-2-((((3-(diethylamino)propoxy)carbonyl)oxy)methyl)propyl) 13-decyl tridecanedioate]
pKa [3]: 6.08 | Encapsulation (%) [1]: 99% | Serum TTR % TSS (Transthyretin (TTR); [5]): 84% | Serum TTR (Transthyretin (TTR); [6]): 633 µg/mL | Number mean (nm) [2, 7]: 75.67 nm | PDI [2, 7]: 0.028 | Z-avg (nm) [2, 7]: 93.13 nm

CCCCCCCCCCCCOC(=O)CCCCCCCC(=O)OCC(COC(=O)CCC(OCCCCCCCC)OCCCCCCCC)COC(=O)OCCCN(CC)CC (stereo not drawn) [Compound 92, 1-(3-((4,4-bis(octyloxy)butanoyl)oxy)-2-((((3-(diethylamino)propoxy)carbonyl)oxy)methyl)propyl) 9-dodecyl nonanedioate]
pKa [3]: 6.16 | Encapsulation (%) [1]: 99% | Serum TTR % TSS (Transthyretin (TTR); [5]): 62% | Serum TTR (Transthyretin (TTR); [6]): 470 µg/mL | Number mean (nm) [2, 7]: 77.35 nm | PDI [2, 7]: 0.022 | Z-avg (nm) [2, 7]: 93.69 nm

CCCCCCCCCCCCCCOC(=O)CCCCCCCC(=O)OCC(COC(=O)CCC(OCCCCCCCC)OCCCCCCCC)COC(=O)OCCCN(CC)CC (stereo not drawn) [Compound 93, 1-(3-((4,4-bis(octyloxy)butanoyl)oxy)-2-((((3-(diethylamino)propoxy)carbonyl)oxy)methyl)propyl) 9-tetradecyl nonanedioate]
pKa [3]: 6.15 | Encapsulation (%) [1]: 98% | Serum TTR % TSS (Transthyretin (TTR); [5]): 88% | Serum TTR (Transthyretin (TTR); [6]): 669 µg/mL | Number mean (nm) [2, 7]: 78.73 nm | PDI [2, 7]: 0.004 | Z-avg (nm) [2, 7]: 95.19 nm

CCCCCCCCCC(CC)OC(=O)CCCCCCCC(=O)OCC(COC(=O)CCC(OCCCCCCCC)OCCCCCCCC)COC(=O)OCCCN(CC)CC (stereo not drawn) [Compound 95, 1-(3-((4,4-bis(octyloxy)butanoyl)oxy)-2-((((3-(diethylamino)propoxy)carbonyl)oxy)methyl)propyl) 9-(dodecan-3-yl) nonanedioate]
pKa [3]: 6.14 | Encapsulation (%) [1]: 99% | Serum TTR % TSS (Transthyretin (TTR); [5]): 54% | Serum TTR (Transthyretin (TTR); [6]): 408 µg/mL | Number mean (nm) [2, 7]: 74.5 nm | PDI [2, 7]: 0.029 | Z-avg (nm) [2, 7]: 91.1 nm

CCCCC/C=C\C/C=C\CCCCCCCC(=O)OCC(C)(COC(=O)CCC(OCCCCCCCC)OCCCCCCCC)COC(=O)OCCCN(CC)CC (stereo not drawn) [Compound 96, 3-((4,4-bis(octyloxy)butanoyl)oxy)-2-((((3-(diethylamino)propoxy)carbonyl)oxy)methyl)-2-methylpropyl (9Z,12Z)-octadeca-9,12-dienoate]
pKa [3]: 5.76 | Encapsulation (%) [1]: 98% | Serum TTR % TSS (Transthyretin (TTR); [5]): 58% | Serum TTR (Transthyretin (TTR); [6]): 449 µg/mL | Number mean (nm) [2, 7]: 65.94 nm | PDI [2, 7]: 0.019 | Z-avg (nm) [2, 7]: 81.55 nm
